Laboratory results reported in patent US8648096B2, “N-methylaminomethyl isoindole compounds and compositions comprising and methods of using the same” (Celgene Corporation, priority 2006, dated 2014).

SMILES	melting point
CN(Cc1cccc2c1C(=O)N(C1CCC(=O)NC1=O)C2=O)C(=O)OC(C)(C)C (stereo not shown) [Example 5.1, [2-(2,6-dioxo-piperidin-3-yl)-1,3-dioxo-2,3-dihydro-1H-isoindol-4-ylmethyl]-methyl-carbamic acid T-butyl ester]	138 to 140 °C
Cc1cccc(NC(=O)N(C)Cc2cccc3c2CN(C2CCC(=O)NC2=O)C3=O)c1 (stereo not shown) [Example 5.29, 1-[2-(2,6-dioxo-piperidin-3-yl)-1-oxo-2,3-dihydro-1H-isoindol-4-ylmethyl]-1-methyl-3-M-tolyl-urea]	208 to 210 °C
CCCNC(=O)N(C)Cc1cccc2c1CN(C1CCC(=O)NC1=O)C2=O (stereo not shown) [Example 5.30, 1-[2-(2,6-dioxo-piperidin-3-yl)-1-oxo-2,3-dihydro-1H-isoindol-4-ylmethyl]-1-methyl-3-propyl-urea]	220 to 222 °C
CN(Cc1cccc2c1CN(C1CCC(=O)NC1=O)C2=O)C(=O)Nc1cccc(Cl)c1 (stereo not shown) [Example 5.32, 3-(3-chloro-phenyl)-1-[2-(2,6-dioxo-piperidin-3-yl)-1-oxo-2,3-dihydro-1H-isoindol-4-ylmethyl]-1-methyl-urea]	193 to 195 °C
CN(Cc1cccc2c1CN(C1CCC(=O)NC1=O)C2=O)C(=O)Nc1cccc(C(F)(F)F)c1 (stereo not shown) [Example 5.34, 1-[2-(2,6-dioxo-piperidin-3-yl)-1-oxo-2,3-dihydro-1H-isoindol-4-ylmethyl]-1-methyl-3-(3-trifluoromethyl-phenyl)-urea]	198 to 200 °C
CN(Cc1cccc2c1C(=O)N(C1CCC(=O)NC1=O)C2=O)C(=O)Nc1cccc(Cl)c1 (stereo not shown) [Example 5.35, 3-(3-chloro-phenyl)-1-[2-(2,6-dioxo-piperidin-3-yl)-1,3-dioxo-2,3-dihydro-1H-isoindol-4-ylmethyl]-1-methyl-urea]	193 to 195 °C
CN(Cc1cccc2c1C(=O)N(C1CCC(=O)NC1=O)C2=O)C(=O)NC(C)(C)C (stereo not shown) [Example 5.36, 3-tert-butyl-1-[2-(2,6-dioxo-piperidin-3-yl)-1,3-dioxo-2,3-dihydro-1H-isoindol-4-ylmethyl]-1-methyl-urea]	188 to 190 °C

Next, values leading:

melting point	SMILES
285 to 287 °C	CN(Cc1cccc2c1CN(C1CCC(=O)NC1=O)C2=O)C(=O)Nc1cc(Cl)cc(Cl)c1 (stereo not shown) [Example 5.37, 3-(3,5-dichloro-phenyl)-1-[2-(2,6-dioxo-piperidin-3-yl)-1-oxo-2,3-dihydro-1H-isoindol-4-ylmethyl]-1-methyl-urea]
202 to 204 °C	Cc1ccc(NC(=O)N(C)Cc2cccc3c2C(=O)N(C2CCC(=O)NC2=O)C3=O)cc1C (stereo not shown) [Example 5.40, 3-(3,4-dimethyl-phenyl)-1-[2-(2,6-dioxo-piperidin-3-yl)-1,3-dioxo-2,3-dihydro-1H-isoindol-4-ylmethyl]-1-methyl-urea]
292 to 294 °C	CN(Cc1cccc2c1CN(C1CCC(=O)NC1=O)C2=O)C(=O)Nc1cccc2ccccc12 (stereo not shown) [Example 5.41, 1-[2-(2,6-dioxo-piperidin-3-yl)-1-oxo-2,3-dihydro-1H-isoindol-4-ylmethyl]-1-methyl-3-naphthalen-1-yl-urea]
